Laboratory results from ChEMBL document CHEMBL4177650, “Synthesis and biological evolution of hydrazones derived from 4-(trifluoromethyl)benzohydrazide” (Bioorg Med Chem Lett, 2017).
≈ marks a conversion by molar mass, not a printed value. Calls of active or inactive are those of the source. The rule behind the calls is not given here.

What follows are compounds tested on Klebsiella pneumoniae (assay: Antibacterial activity against gram-negative Klebsiella pneumoniae D 11750/08 after 24 to 48 hrs by microdilution broth method). Conditions: not given.
Format: functional, organism-based

| SMILES | Activity |
| --- | --- |
| CC(C)=NNC(=O)c1ccc(C(F)(F)F)cc1 | inactive |

Each compound was assayed on Escherichia coli (assay: Antibacterial activity against gram-negative Escherichia coli CCM 4517 after 24 hrs by microdilution broth method). Conditions: CCM 4517, 24 h.
Format: functional

| SMILES | MIC [µM] |
| --- | --- |
| CC(C)=NNC(=O)c1ccc(C(F)(F)F)cc1 | > 500 |

What follows are compounds tested on Enterococcus faecalis (assay: Antibacterial activity against gram-positive Enterococcus faecalis J 14365/08 after 48 hrs by microdilution broth method). Conditions: J 14365/08, 48 h.
Format: functional

| SMILES | MIC [µM] |
| --- | --- |
| CC(C)=NNC(=O)c1ccc(C(F)(F)F)cc1 | 500 (≈ 122 µg/mL) |

Each compound was assayed on Mycobacterium avium (assay: Antimycobacterial activity against Mycobacterium avium 330/88 after 14 days by micromethod). Conditions: 330/88, 336 h.
Format: functional

| SMILES | MIC [µM] |
| --- | --- |
| CC(C)=NNC(=O)c1ccc(C(F)(F)F)cc1 | > 125 |

The compounds below were run on Candida tropicalis (assay: Antifungal activity against Candida tropicalis 156 after 24 hrs by microdilution broth method). Conditions: Candida tropicalis, 156, 24 h.
Format: functional

| SMILES | MIC [µM] |
| --- | --- |
| CC(C)=NNC(=O)c1ccc(C(F)(F)F)cc1 | > 500 |

Each compound was assayed on Staphylococcus aureus (assay: Antibacterial activity against gram-positive methicillin-resistant Staphylococcus aureus H 5996/08 after 48 hrs by microdilution broth method). Conditions: H 5996/08, 48 h.
Format: functional

| SMILES | MIC [µM] |
| --- | --- |
| CC(C)=NNC(=O)c1ccc(C(F)(F)F)cc1 | > 500 |

The compounds below were run on Aspergillus fumigatus (assay: Antifungal activity against Aspergillus fumigatus 231 after 24 to 48 hrs by microdilution broth method). Conditions: not given.
Format: functional, organism-based

| SMILES | Activity |
| --- | --- |
| CC(C)=NNC(=O)c1ccc(C(F)(F)F)cc1 | inactive |

Each compound was assayed on Candida tropicalis (assay: Antifungal activity against Candida tropicalis 156 after 48 hrs by microdilution broth method). Conditions: Candida tropicalis, 156, 48 h.
Format: functional

| SMILES | MIC [µM] |
| --- | --- |
| CC(C)=NNC(=O)c1ccc(C(F)(F)F)cc1 | > 500 |

The compounds below were run on Escherichia coli (assay: Antibacterial activity against gram-negative Escherichia coli CCM 4517 after 48 hrs by microdilution broth method). Conditions: CCM 4517, 48 h.
Format: functional

| SMILES | MIC [µM] |
| --- | --- |
| CC(C)=NNC(=O)c1ccc(C(F)(F)F)cc1 | > 500 |

What follows are compounds tested on Staphylococcus epidermidis (assay: Antibacterial activity against gram-positive Staphylococcus epidermidis H 6966/08 after 24 hrs by microdilution broth method). Conditions: H 6966/08, 24 h.
Format: functional

| SMILES | MIC [µM] |
| --- | --- |
| CC(C)=NNC(=O)c1ccc(C(F)(F)F)cc1 | 500 (≈ 122 µg/mL) |

The compounds below were run on Candida albicans (assay: Antifungal activity against Candida albicans ATCC 44859 after 24 to 48 hrs by microdilution broth method). Conditions: not given.
Format: functional, organism-based

| SMILES | Activity |
| --- | --- |
| CC(C)=NNC(=O)c1ccc(C(F)(F)F)cc1 | inactive |

Each compound was assayed on Nakaseomyces glabratus (assay: Antifungal activity against Candida glabrata 20/I after 48 hrs by microdilution broth method). Conditions: not given.
Format: functional

| SMILES | MIC [µM] |
| --- | --- |
| CC(C)=NNC(=O)c1ccc(C(F)(F)F)cc1 | > 500 |

The compounds below were run on Lichtheimia corymbifera (assay: Antifungal activity against Absidia corymbifera 272 after 24 to 48 hrs by microdilution broth method). Conditions: not given.
Format: functional, organism-based

| SMILES | Activity |
| --- | --- |
| CC(C)=NNC(=O)c1ccc(C(F)(F)F)cc1 | inactive |

These compounds were tested on Mycobacterium kansasii (assay: Antimycobacterial activity against Mycobacterium kansasii 6509/80 after 21 days by micromethod). Conditions: 6509/80, 504 h.
Format: functional

| SMILES | MIC [µM] |
| --- | --- |
| CC(C)=NNC(=O)c1ccc(C(F)(F)F)cc1 | > 125 |

What follows are compounds tested on Pichia kudriavzevii (assay: Antifungal activity against Candida krusei E28 after 24 hrs by microdilution broth method). Conditions: E28, 24 h.
Format: functional

| SMILES | MIC [µM] |
| --- | --- |
| CC(C)=NNC(=O)c1ccc(C(F)(F)F)cc1 | > 500 |

Each compound was assayed on Mycobacterium kansasii (assay: Antimycobacterial activity against Mycobacterium kansasii 6509/80 after 7 days by micromethod). Conditions: 6509/80, 168 h.
Format: functional

| SMILES | MIC [µM] |
| --- | --- |
| CC(C)=NNC(=O)c1ccc(C(F)(F)F)cc1 | 125 (≈ 30.5 µg/mL) |

The compounds below were run on Pseudomonas aeruginosa (assay: Antibacterial activity against gram-negative Pseudomonas aeruginosa CCM 1961 after 48 hrs by microdilution broth method). Conditions: not given.
Format: functional, organism-based

| SMILES | Activity |
| --- | --- |
| CC(C)=NNC(=O)c1ccc(C(F)(F)F)cc1 | inactive |

These compounds were tested on Mycobacterium kansasii (assay: Antimycobacterial activity against Mycobacterium kansasii 6509/96 after 21 days by micromethod). Conditions: 6509/96, 504 h.
Format: functional

| SMILES | MIC [µM] |
| --- | --- |
| CC(C)=NNC(=O)c1ccc(C(F)(F)F)cc1 | > 125 |

Each compound was assayed on Nakaseomyces glabratus (assay: Antifungal activity against Candida glabrata 20/I after 24 hrs by microdilution broth method). Conditions: not given.
Format: functional

| SMILES | MIC [µM] |
| --- | --- |
| CC(C)=NNC(=O)c1ccc(C(F)(F)F)cc1 | > 500 |

These compounds were tested on Mycobacterium tuberculosis (assay: Antimycobacterial activity against Mycobacterium tuberculosis H37Rv 331/88 after 14 days by micromethod). Conditions: H37Rv 331/88, 336 h.
Format: functional

| SMILES | MIC [µM] |
| --- | --- |
| CC(C)=NNC(=O)c1ccc(C(F)(F)F)cc1 | > 125 |

What follows are compounds tested on Mycobacterium kansasii (assay: Antimycobacterial activity against Mycobacterium kansasii 6509/96 after 14 days by micromethod). Conditions: 6509/96, 336 h.
Format: functional

| SMILES | MIC [µM] |
| --- | --- |
| CC(C)=NNC(=O)c1ccc(C(F)(F)F)cc1 | > 125 |

What follows are compounds tested on Pichia kudriavzevii (assay: Antifungal activity against Candida krusei E28 after 48 hrs by microdilution broth method). Conditions: E28, 48 h.
Format: functional

| SMILES | MIC [µM] |
| --- | --- |
| CC(C)=NNC(=O)c1ccc(C(F)(F)F)cc1 | > 500 |

These compounds were tested on Staphylococcus aureus (assay: Antibacterial activity against gram-positive Staphylococcus aureus CCM 4516/08 after 24 hrs by microdilution broth method). Conditions: CCM 4516/08, 24 h.
Format: functional

| SMILES | MIC [µM] |
| --- | --- |
| CC(C)=NNC(=O)c1ccc(C(F)(F)F)cc1 | > 500 |

The compounds below were run on Mycobacterium kansasii (assay: Antimycobacterial activity against Mycobacterium kansasii 6509/80 after 14 days by micromethod). Conditions: 6509/80, 336 h.
Format: functional

| SMILES | MIC [µM] |
| --- | --- |
| CC(C)=NNC(=O)c1ccc(C(F)(F)F)cc1 | > 125 |

The compounds below were run on Trichophyton mentagrophytes (assay: Antifungal activity against Trichophyton mentagrophytes 445 after 120 hrs by microdilution broth method). Conditions: Trichophyton mentagrophytes, 445, 120 h.
Format: functional

| SMILES | MIC [µM] |
| --- | --- |
| CC(C)=NNC(=O)c1ccc(C(F)(F)F)cc1 | > 500 |

These compounds were tested on Mycobacterium avium (assay: Antimycobacterial activity against Mycobacterium avium 330/88 after 21 days by micromethod). Conditions: 330/88, 504 h.
Format: functional

| SMILES | MIC [µM] |
| --- | --- |
| CC(C)=NNC(=O)c1ccc(C(F)(F)F)cc1 | > 125 |

These compounds were tested on Trichophyton mentagrophytes (assay: Antifungal activity against Trichophyton mentagrophytes 445 after 72 hrs by microdilution broth method). Conditions: Trichophyton mentagrophytes, 445, 72 h.
Format: functional

| SMILES | MIC [µM] |
| --- | --- |
| CC(C)=NNC(=O)c1ccc(C(F)(F)F)cc1 | > 500 |

These compounds were tested on Staphylococcus aureus (assay: Antibacterial activity against gram-positive methicillin-resistant Staphylococcus aureus H 5996/08 after 24 hrs by microdilution broth method). Conditions: H 5996/08, 24 h.
Format: functional

| SMILES | MIC [µM] |
| --- | --- |
| CC(C)=NNC(=O)c1ccc(C(F)(F)F)cc1 | > 500 |

The compounds below were run on Staphylococcus epidermidis (assay: Antibacterial activity against gram-positive Staphylococcus epidermidis H 6966/08 after 48 hrs by microdilution broth method). Conditions: H 6966/08, 48 h.
Format: functional

| SMILES | MIC [µM] |
| --- | --- |
| CC(C)=NNC(=O)c1ccc(C(F)(F)F)cc1 | > 500 |

What follows are compounds tested on Enterococcus faecalis (assay: Antibacterial activity against gram-positive Enterococcus faecalis J 14365/08 after 24 hrs by microdilution broth method). Conditions: J 14365/08, 24 h.
Format: functional

| SMILES | MIC [µM] |
| --- | --- |
| CC(C)=NNC(=O)c1ccc(C(F)(F)F)cc1 | 250 (≈ 61.1 µg/mL) |

The compounds below were run on Klebsiella pneumoniae (assay: Antibacterial activity against extended spectrum beta-lactamase-positive Klebsiella pneumoniae J 14368/08 after 24 to 48 hrs by microdilution broth method). Conditions: not given.
Format: functional, organism-based

| SMILES | Activity |
| --- | --- |
| CC(C)=NNC(=O)c1ccc(C(F)(F)F)cc1 | inactive |

These compounds were tested on Staphylococcus aureus (assay: Antibacterial activity against gram-positive Staphylococcus aureus CCM 4516/08 after 48 hrs by microdilution broth method). Conditions: CCM 4516/08, 48 h.
Format: functional

| SMILES | MIC [µM] |
| --- | --- |
| CC(C)=NNC(=O)c1ccc(C(F)(F)F)cc1 | > 500 |

What follows are compounds tested on Trichosporon asahii (assay: Antifungal activity against Trichosporon asahii 1188 after 24 to 48 hrs by microdilution broth method). Conditions: not given.
Format: functional, organism-based

| SMILES | Activity |
| --- | --- |
| CC(C)=NNC(=O)c1ccc(C(F)(F)F)cc1 | inactive |

What follows are compounds tested on Mycobacterium tuberculosis (assay: Antimycobacterial activity against Mycobacterium tuberculosis H37Rv 331/88 after 21 days by micromethod). Conditions: H37Rv 331/88, 504 h.
Format: functional

| SMILES | MIC [µM] |
| --- | --- |
| CC(C)=NNC(=O)c1ccc(C(F)(F)F)cc1 | > 125 |

What follows are compounds tested on Mycobacterium kansasii (assay: Antimycobacterial activity against Mycobacterium kansasii 6509/96 after 7 days by micromethod). Conditions: 6509/96, 168 h.
Format: functional

| SMILES | MIC [µM] |
| --- | --- |
| CC(C)=NNC(=O)c1ccc(C(F)(F)F)cc1 | > 125 |
